Results: patent US7186413B2, “Hydrogels and water soluble polymeric carriers for drug delivery” (The Regents of the University of Michigan, priority 1998, dated 2007)

Key:
[1] = release of ionically bound or physically entrapped drugs and dyes from hydrogels; format: physicochemical
Procedure: Samples containing 9.8, 19.5, and 39.1 mg brilliant blue per gram of PAG either with or without calcium (which enhances gelling) were studied over a period of several weeks.

[2] = test system: KB cells; experiment: standard cytotoxicity assay with KB cells
Procedure: The activity of covalently bound daunomycin released from 6 wt % PAG gels was tested using KB cells in a standard cytotoxicity assay. Gels containing either zero, 13.3 or 30 mg of drug per gram of PAG were incubated in sterile media at 37° C. which was tested and replaced weekly.
The biocompatibility of PAG has been tested in vitro.
Sodium periodate, adipic dihydrazide, ethylene glycol, and calcium chloride were purchased from Aldrich Chemical Company (Milwaukee, Wis.) and were used as received. Daunomycin hydrochloride was purchased from Fluka Chemical Corporation (Ronkonkoma, N.Y.). Dulbecco's Modified Eagle's Medium (DMEM) was purchased from Life Technologies (Grand Island, N.Y.). […] The elution of the drug was monitored at 480 nm. • Synthesis of the poly(aldehyde guluronate), PAG. […] The product was analyzed by ^1H-NMR, FTIR, and the aldehyde content was quantified using trinitrobenzene sulfonic acid. • Preparation of cross-linked PAG hydrogels. […] To quantify the amount of daunomycin that is incorporated in the gels, two sets of hydrogels were formed as described above. […] The solutions were then sonicated for 30 minutes, quantitatively transferred to 5 ml volumetric flasks, and diluted with double distilled water. […]

[3] = in vitro release of daunomycin from cross-linked PAG hydrogels; format: physicochemical
[4] = determination of the drug incorporated (retained) in PAG hydrogel; format: physicochemical; conditions: lyophilized, crushed PAG hydrogel extracted with water
Procedure: The reaction described in Example 2 was utilized to incorporate daunomycin into hydrogels for localized drug delivery. HPLC was used to determine the amount of daunomycin that reacted with adipic dihydrazide before the addition of PAG. Mixtures of daunomycin and adipic dihydrazide were analyzed and found to contain 88.5% of the daunomycin-adipic dihydrazide conjugate and 11.5% of free drug (FIG. 21). The amount of daunomycin that was covalently incorporated into the hydrogel was next determined by quantifying the amount of free drug in the hydrogel. Hydrogels containing daunomycin or trypan blue were synthesized, frozen, lyophilized, and crushed to form powders. The free drug was then dissolved in water and the resulting mixture was filtered to remove any fine particles. The concentration of the free drug was then determined spectrophotometrically. […] Only two percent of the trypan blue was retained in the hydrogel. In comparison, 86.9±0.1% of daunomycin remained in the gelatinous particles. Moreover, hydrogels containing trypan blue that were incubated in DMEM released the entire drug within 24 hours. These findings clearly indicate that daunomycin is covalently coupled to the hydrogel through the adipic dihydrazide molecule. The daunomycin incorporation in the hydrogels correlates well with the percentage of daunomycin-adipic dihydrazide conjugate that was determined by HPLC analysis. […]

With `CN(Cc1cnc2nc(N)nc(N)c2n1)c1ccc(C(=O)N[C@@H](CCC(=O)O)C(=O)O)cc1` [Methotrexate] the “time to quantitative release from the hydrogels” value ([1]; physically entrapped, diffusion, all conditions) was ≤ 5 days.
In the case of `COc1cccc2c1C(=O)c1c(O)c3c(c(O)c1C2=O)C[C@@](O)(C(C)=O)C[C@@H]3O[C@H]1C[C@H](N)[C@H](O)[C@H](C)O1` [daunomycin], the IC50 ([2]; Homo sapiens, KB, 48 h) is reported as 202 ± 48 nM, the “drug released during the first six weeks” value ([3]; 6% w/w PAG, 150 mM AAD, 40 mM calcium) is reported as 40% and the “release rate of drug from hydrogel” value ([3]; 6% w/w PAG, 150 mM AAD, 40 mM calcium, first six weeks) is reported as 0.8 % drug per day. The “time to release of all incorporated drug” value ([3]; 6% w/w PAG, 150 mM AAD, absence of calcium) was “four”, the “release rate of drug from hydrogel” value ([3]; 6% w/w PAG, 150 mM adipic dihydrazide, acidic medium) was 1.8 % per day and the “release rate of drug from hydrogel” value ([3]; 6% w/w PAG, 150 mM adipic dihydrazide, neutral condition) was 1 % per day. For the same molecule, the “time to release of total incorporated drug” value ([3]; 6 wt % PAG, 8 mM daunomycin, 150 mM AAD) was “thirty”, the “release rate of drug from hydrogel” value ([3]; 6 wt % PAG, 8 mM daunomycin, 150 mM AAD, first ten days, DMEM 37° C.) was 1 % drug per day and the “release rate of drug from hydrogel” value ([3]; 6 wt % PAG, 8 mM daunomycin, 150 mM AAD, following twenty-two days) was “approximately 4 % per day”. For the same molecule, the “time to release of total drug loaded” value ([3]; 6 wt % PAG, 50 mM AAD cross-linker) was “two”, the “time to release of total drug loaded” value ([3]; 6 wt % PAG, 100 mM AAD) was “two” and the “time to release of total drug loaded” value ([3]; 6 wt % PAG, elevated AAD concentrations) was “more than six”. For the same molecule, the “fraction retained in the hydrogel particles” value [4] was 86.9±0.1%.
With `O=C1c2c(O)ccc(O)c2C(=O)c2c(NCCNCCO)ccc(NCCNCCO)c21` [Mitoxantrone] the “cytotoxicity of drug alone versus mixed with AAD (prodrug formation, FIG. 9)” value ([2]; mixed with AAD) was “not found to form a prodrug”.
In the case of `Cc1cc(-c2ccc(/N=N/c3c(S(=O)(=O)O)cc4cc(S(=O)(=O)O)cc(N)c4c3O)c(C)c2)ccc1/N=N/c1c(S(=O)(=O)O)cc2cc(S(=O)(=O)O)cc(N)c2c1O` [trypan blue], the “fraction retained in the hydrogel particles” value [4] is reported as “two” and the “time to release of the entire drug from hydrogel” value ([1]; PAG hydrogels incubated in DMEM) is reported as ≤ 24 h.
